Series [1] has as its target T1, Capsid scaffolding protein (Herpes simplex virus (type 1 / strain 17), UniProt P10210).
T1 sequence (P10210 whole entry): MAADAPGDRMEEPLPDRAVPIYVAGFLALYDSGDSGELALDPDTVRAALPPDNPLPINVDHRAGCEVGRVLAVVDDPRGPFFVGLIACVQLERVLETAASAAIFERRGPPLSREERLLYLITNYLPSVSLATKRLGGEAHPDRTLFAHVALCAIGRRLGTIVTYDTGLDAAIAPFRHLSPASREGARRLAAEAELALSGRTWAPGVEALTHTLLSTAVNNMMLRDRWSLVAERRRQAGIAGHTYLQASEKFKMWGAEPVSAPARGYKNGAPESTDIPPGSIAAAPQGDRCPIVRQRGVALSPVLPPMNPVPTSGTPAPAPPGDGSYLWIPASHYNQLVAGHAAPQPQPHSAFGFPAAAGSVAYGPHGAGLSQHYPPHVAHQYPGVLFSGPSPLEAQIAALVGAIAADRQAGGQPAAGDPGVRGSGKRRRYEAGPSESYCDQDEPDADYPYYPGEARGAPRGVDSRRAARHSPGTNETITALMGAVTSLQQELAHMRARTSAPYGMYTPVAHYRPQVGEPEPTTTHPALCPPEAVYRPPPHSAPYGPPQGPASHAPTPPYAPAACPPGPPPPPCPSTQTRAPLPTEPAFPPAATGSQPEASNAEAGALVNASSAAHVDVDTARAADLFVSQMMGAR
Nature of the series: Inhibitory concentration for peptidolytic activity against herpes simplex type-1 (HSV-1) protease at 10 uM. More on the design: species or system Human alphaherpesvirus 1.

The subject of series [2] is Cytomegalovirus. Nature of the series: Inhibitory concentration for peptidolytic activity against cytomegalovirus (CMV) protease at 10 uM. As to conditions: Human betaherpesvirus 5; call rule not given here. In kind it is functional, organism-based.
For series [3], the system named is Human alphaherpesvirus 2. Nature of the series: Percent inhibition for peptidolytic activity against herpes simplex type-2(HSV-2) protease at 10 uM. It is filed as functional.
The test system of series [4] is Cytomegalovirus. Nature of the series: Percent inhibition for peptidolytic activity against cytomegalovirus (CMV) protease at 10 uM. In kind it is functional. As to conditions: Human betaherpesvirus 5.
Series [5] in a line: Selectivity ratio of inhibitory concentration against elastase and HSV-1.
Series [6] can be described thus: Inhibitory concentration for peptidolytic activity against elastase.
The nature of series [7]: Half life was determined. It is filed as ADME. The settings on record: rat.
Series [8] deals with Human alphaherpesvirus 2. Nature of the series: Inhibitory concentration for peptidolytic activity against herpes simplex type-2(HSV-2) protease at 10 uM. In kind it is functional, organism-based.
The nature of series [9]: Tested for peptidolytic activity against subtilisin at a concentration of 1 mM; no inhibition.

In the case of `O=C(N[C@@H](Cc1ccccc1)c1nc2ccsc2c(=O)o1)OCc1ccccc1`, the results for the IC50 (in series [1]; with Cytomegalovirus [2]) were greater than 300 µM and 3.5 µM, respectively.

On to `CC(C)[C@H](NC(=O)OCc1ccccc1)c1nc2ccsc2c(=O)o1`, for which the IC50 in series [1] is 31 µM; in the series on Cytomegalovirus [2], 26 µM.

Turning to `C[C@H](NC(=O)OCc1ccccc1)C(=O)Nc1csc2c(=O)oc([C@H](C)NC(=O)OCc3ccccc3)nc12`, the inhibition at 10 µM in the series with Human alphaherpesvirus 2 [3] is 50%; in the series with Cytomegalovirus [4], 43%.

`NC(=O)CC[C@H](NC(=O)OCc1ccccc1)c1nc2ccsc2c(=O)o1` showed a concentration for half-maximal inhibition (IC50) in series [1] of 6.3 µM.

On to `O=C(NCc1nc2ccsc2c(=O)o1)OCc1ccccc1`, for which the half-maximal inhibitory concentration (IC50) in [1] worked out at 2.7 µM; in the series with Cytomegalovirus [2], 45 µM.

Consider `Cc1cccc2nc([C@H](C)NC(=O)OCc3ccccc3)oc(=O)c12`, for which the Ratio in series [5] amounted to 0.002. Also, in [6], inhibition was half-maximal at 0.22 µM (IC50). For the same compound, the half-life in series [7] is 33 h.

On to `C[C@H](NC(=O)Nc1ccccc1)c1nc2ccsc2c(=O)o1`, for which the concentration for half-maximal inhibition (IC50) with Human alphaherpesvirus 2 [8] and in the series with Cytomegalovirus [2] was greater than 100 µM each time.

Take `Cc1ccc(S(=O)(=O)N[C@@H](C)c2nc3ccsc3c(=O)o2)cc1`: the results for the inhibition at 10 µM with Human alphaherpesvirus 2 [3] and in the series with Cytomegalovirus [4] were 13% and 30%, respectively.

On to `C[C@H](NC(=O)OCc1ccccc1)c1nc2ccccc2c(=O)o1`, for which the Ratio in series [5] amounted to 1.1. This compound showed a concentration for half-maximal inhibition (IC50) in series [6] of 45 µM. Besides, the half-life in [7] was 14 h.

As for `NC(=O)C[C@H](NC(=O)OCc1ccccc1)c1nc2ccsc2c(=O)o1`, the IC50 in series [1] was 10 µM; with Cytomegalovirus [2], 18 µM.

In the case of `C[C@H](NC(=O)OCc1ccccc1)c1nc2cc(-c3ccccc3)sc2c(=O)o1`, the IC50 in series [1] is 3.3 µM; in the series on Cytomegalovirus [2] it was greater than 300 µM.

With `C[C@H](NC(=O)OCc1ccccc1)c1nc2c(Cl)c(NC(=O)[C@@H](C)NC(=O)OCc3ccccc3)sc2c(=O)o1`, the figures for the IC50 with Human alphaherpesvirus 2 [8] and in the series on Cytomegalovirus [2] were 1.6 µM and 1.3 µM, respectively.

Consider `O=C(N[C@@H](CO)c1nc2ccsc2c(=O)o1)OCc1ccccc1`, for which the half-inhibitory concentration (IC50) was 0.33 µM in the series with Human alphaherpesvirus 2 [8], 0.65 µM in [1] and 20 µM with Cytomegalovirus [2].

As to `C[C@H](NC(=O)OCc1ccccc1)c1nc2ccsc2c(=O)o1`, the Ratio in series [5] was 250. For the same compound, the IC50 with Human alphaherpesvirus 2 [8] is 0.42 µM; in series [6], 120 µM; in series [1], 0.48 µM; in series [9], “Not Active”; in the series on Cytomegalovirus [2], 9.4 µM. Also, in [7], the half-life was greater than 100 h.

Regarding `C[C@H](NC(=O)NCc1ccccc1)c1nc2ccsc2c(=O)o1`, the figures for the inhibition at 10 µM with Human alphaherpesvirus 2 [3] and in the series with Cytomegalovirus [4] were 1% and 20%, respectively.

`C[C@H](Nc1ccc([N+](=O)[O-])cc1[N+](=O)[O-])c1nc2ccsc2c(=O)o1`: the values for the IC50 with Human alphaherpesvirus 2 [8] and with Cytomegalovirus [2] were 2.9 µM and 3.3 µM, respectively.

`Cc1csc2c(=O)oc([C@H](C)NC(=O)OCc3ccccc3)nc12`: the figures for the IC50 (in series [1]; with Cytomegalovirus [2]) were 3.1 µM and 12 µM, respectively.

Consider `C[C@H](NC(=O)OC(C)(C)C)c1nc2ccsc2c(=O)o1`, for which the inhibition at 10 µM in the series on Human alphaherpesvirus 2 [3] is 32%; in the series on Cytomegalovirus [4], 15%.

What is called IC50 is the point on the concentration scale where inhibition reaches its midpoint. High values mean weaker potency in that assay, low ones greater potency in that assay. One may read the inhibition as the percentage by which the read-out fell short of the control. High values mean a strong effect, low ones a weak effect. The half-life is how long it takes for the measured level to halve. A high value points to slow decline.

For the origin of these results see ChEMBL document CHEMBL1130472, “Potent selective thienoxazinone inhibitors of herpes proteases” (Bioorg Med Chem Lett, 1997).
